Assay results: article PMC5826917, “A small molecule inhibitor of Nicotinamide N-methyltransferase for the treatment of metabolic disorders” (Scientific Reports, 2018)

How the values were obtained:
[1] = target: T1, monkey NNMT (mkNNMT) (Macaca mulatta, UniProt F7ERX8); assay: Fluorescence based NNMT enzymatic assay (monkey); conditions: fluorescence based biochemical assay
T1 construct: made in house
Method: NNMT activity was measured with the fluorescence enzymatic assay[22],[23]. MNA formed in the NNMT reaction reacts with acetophenone in the presence of KOH and formic acid and forms a fluorescent product 2, 7- naphthyridine. JBSNF-000088 was screened using human, mouse and monkey NNMT enzymes. Different concentrations of inhibitors were preincubated along with the enzyme for 30 minutes at room temperature. Reaction was initiated by addition of SAM and nicotinamide mixture (7 µM, 20 µM, 8 µM SAM and 6 µM, 20 µM, 9 µM nicotinamide for human, mouse and monkey NNMT assays respectively) for 60 minutes at 37 °C. The final assay reaction mixture contained a buffer of 100 mM Tris Hcl pH 7.5, 0.04% BSA, 2 mM dithiothreitol and 1% DMSO. At the end of the incubation, the reaction was stopped by the addition of ethanol: acetophenone mix (75% ethanol: 25% acetophenone) and 5 M potassium hydroxide prepared with 50% ethanol. The reaction was incubated for 15 minutes following which 100 µL of 60% formic acid was added. […] The fluorescent product 2, 7- naphthyridine was measured using a Tecan reader with excitation at 375 nm and emission at 430 nm. The IC50 values were determined by fitting the inhibition curves (percent inhibition versus inhibitor concentration) using a four parametric sigmoidal dose response using GraphPad Prism software.

[2] = system: human NNMT; assay: Thermal shift assay, human NNMT; type: binding; conditions: in presence of SAM, molar ratio enzyme:SAM:compound ~1:5:10
Method: Thermal shift assay experiments were carried out as described previously.

[3] = system: plasma MNA levels
Method: Samples for MNA were analyzed employing a fit-for-purpose LC-MS/MS method. PE-Sciex API-4000 triple quadrupole (PerkinElmerSciex Instruments, Boston, MA) mass spectrometer was employed for this analysis. Samples (5 µL) were injected onto Kinetex HILIC (50 × 4.6 mm, 2.6 µm; Phenomenex, Torrance, CA, USA) column connected to Shimadzu VP (Shimadzu, Japan) LC system. The gradient mobile phase mixture of 0.2% formic acid and acetonitrile was delivered at a flow rate of 0.45 ml min-1 into the mass spectrometer electrospray ionization (ESI) chamber. Quantitation was achieved by MS/MS detection in positive ion mode for MNA and internal standard (d4–MNA). Detection of the ions was performed in the multiple reaction monitoring (MRM) mode, monitoring the transition of the m/z 137 precursor ion to the m/z 92 product ion for MNA and m/z 141 precursor ion to the m/z 84 product ion for d4-MNA (internal standard).
A simple protein precipitation extraction method was followed for extraction of N-methylnicotinamide from plasma and various tissue homogenate samples. The tissue samples were homogenized with 1:3 proportions of phosphate buffer saline (PBS) and this homogenate was used for N-Methylnicotinamide determinations. […] The supernatant was separated and transferred to pre-labeled HPLC vials and analyzed by LC-MS/MS system.

[4] = system: wild-type and NNMT knockout mice on HFD
Text: NNMT fl/fl mice on a C57BL/6 background were generated by Regeneron Pharmaceuticals (Tarrytown, NY) using VelociGene® technology. A loxP locus was placed 1.6 kb upstream of the transcription starting site encompassing the gene promoter. A loxP-Frt-Hyg-Frt cassette was inserted 212 bp downstream of NNMT exon 1. The floxed coordinates were chr9:48,412,881–48,414,698. NNMT fl/fl mice were crossed with ZP3-cre mice (C57BL/6, Jackson Laboratories) to generate whole-body NNMT knockout mice. The DIO mouse study was conducted in accordance to the German Animal Protection Law, as well as according to international animal welfare legislation and rules. Female wild-type and NNMT knockout animals were put on high-fat diet (Ssniff HFD adjusted TD.97366) for 18 weeks and then treated with either JBSNF-000088 (50 mg/kg bid by oral gavage) or vehicle for four weeks (n = 9–10 per group). Throughout the study, Mice were housed in an environmentally controlled room at 23 °C on a 12 h:12 h light dark cycle (light on at 06:00 AM), and food and water was offered ad libitum. An oral glucose tolerance test was performed on day 25 of treatment: Animals were fasted overnight. 60 minutes before an oral glucose bolus (2 g kg^−1), JBSNF-000088 (50 mg kg^−1) or vehicle (0.5% HEC + 0.5% Tween80) was administered by oral gavage. For blood glucose analysis, blood was collected from the tail of conscious mice at time points 15, 30, 60 and 120 minutes after the glucose bolus.

[5] = target: Adrenoreceptor beta 1 (ADRB1) (Homo sapiens, UniProt P08588); assay: Selectivity panel: ADRB1; type: cell-based
Adrenoreceptor beta 1 (ADRB1), sequence (P08588 whole entry): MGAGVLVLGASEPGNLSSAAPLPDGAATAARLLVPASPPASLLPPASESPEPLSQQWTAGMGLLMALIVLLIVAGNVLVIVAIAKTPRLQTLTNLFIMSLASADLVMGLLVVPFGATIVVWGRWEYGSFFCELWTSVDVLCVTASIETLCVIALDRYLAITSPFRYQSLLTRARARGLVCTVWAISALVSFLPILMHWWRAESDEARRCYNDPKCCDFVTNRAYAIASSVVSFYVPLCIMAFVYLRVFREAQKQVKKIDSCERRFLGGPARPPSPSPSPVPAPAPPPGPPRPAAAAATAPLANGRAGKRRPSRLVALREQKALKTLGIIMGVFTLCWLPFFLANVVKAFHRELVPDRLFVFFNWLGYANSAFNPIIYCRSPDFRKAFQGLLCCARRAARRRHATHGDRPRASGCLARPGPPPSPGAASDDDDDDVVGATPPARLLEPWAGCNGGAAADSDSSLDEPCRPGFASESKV

[6] = target: Adrenoreceptor beta 2 (ADRB2) (Homo sapiens, UniProt P07550); assay: Selectivity panel: ADRB2; type: cell-based
Adrenoreceptor beta 2 (ADRB2), sequence (P07550 whole entry): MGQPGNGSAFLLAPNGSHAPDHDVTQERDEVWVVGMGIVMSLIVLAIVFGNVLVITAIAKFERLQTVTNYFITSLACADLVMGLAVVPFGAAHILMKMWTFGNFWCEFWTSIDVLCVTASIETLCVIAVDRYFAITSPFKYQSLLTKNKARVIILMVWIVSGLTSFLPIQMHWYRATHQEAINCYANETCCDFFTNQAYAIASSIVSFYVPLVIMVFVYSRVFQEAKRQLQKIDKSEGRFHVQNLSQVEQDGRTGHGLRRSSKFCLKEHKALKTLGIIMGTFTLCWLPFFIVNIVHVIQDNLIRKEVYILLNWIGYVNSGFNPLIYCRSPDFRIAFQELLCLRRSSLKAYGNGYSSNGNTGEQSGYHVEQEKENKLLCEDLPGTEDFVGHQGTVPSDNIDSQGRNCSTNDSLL

[7] = system: Cl- Channel; assay: Selectivity panel: Cl- channel; type: binding; conditions: 10 µM
[8] = target: Dopamine Receptor 2 Short (D2S) (Homo sapiens, UniProt P14416); assay: Selectivity panel: D2S; type: cell-based
Dopamine Receptor 2 Short (D2S), sequence (P14416 1-414 isoform P14416-2): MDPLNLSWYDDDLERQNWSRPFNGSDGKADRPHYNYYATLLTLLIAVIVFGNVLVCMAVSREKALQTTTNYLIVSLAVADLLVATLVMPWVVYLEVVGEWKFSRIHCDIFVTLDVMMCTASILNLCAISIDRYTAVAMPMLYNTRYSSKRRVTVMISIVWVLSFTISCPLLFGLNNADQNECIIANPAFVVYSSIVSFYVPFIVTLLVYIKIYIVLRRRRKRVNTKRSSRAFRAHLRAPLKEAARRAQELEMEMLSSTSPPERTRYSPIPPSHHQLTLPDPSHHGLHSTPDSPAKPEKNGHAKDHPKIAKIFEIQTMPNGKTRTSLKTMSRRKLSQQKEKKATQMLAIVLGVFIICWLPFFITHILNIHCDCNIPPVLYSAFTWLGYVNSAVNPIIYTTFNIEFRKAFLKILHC
Method: (§1) Supplement 41598_2018_22081_MOESM1_ESM.docx, table 2: Supplementary table 2: Selectivity profile of JBSNF-000088 (at 10 µM) vs a panel of 34 receptors, channels and enzymes. | column: E% (agonistic); I% (antagonistic or inhibitory)

[9] = target: Muscarinic Receptor 2 (CHRM2) (Homo sapiens, UniProt P08172); assay: Selectivity panel: CHRM2; type: cell-based
Muscarinic Receptor 2 (CHRM2), sequence (P08172 whole entry): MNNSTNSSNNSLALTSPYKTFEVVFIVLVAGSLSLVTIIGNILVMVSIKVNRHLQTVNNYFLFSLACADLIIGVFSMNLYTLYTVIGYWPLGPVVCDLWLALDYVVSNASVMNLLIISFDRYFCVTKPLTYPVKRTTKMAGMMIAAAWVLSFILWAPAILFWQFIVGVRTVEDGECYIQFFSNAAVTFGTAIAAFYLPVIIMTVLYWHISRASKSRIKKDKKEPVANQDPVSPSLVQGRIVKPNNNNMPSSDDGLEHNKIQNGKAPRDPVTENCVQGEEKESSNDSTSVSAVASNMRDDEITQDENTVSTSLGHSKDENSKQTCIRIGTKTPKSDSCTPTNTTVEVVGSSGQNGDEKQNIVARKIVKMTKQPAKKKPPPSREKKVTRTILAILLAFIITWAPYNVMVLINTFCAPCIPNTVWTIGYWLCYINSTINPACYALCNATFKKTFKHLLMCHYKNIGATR
Method: as §1

[10] = target: Serotonin Receptor 2A (5HT2A) (Homo sapiens, UniProt P28223); assay: Selectivity panel: 5HT2A; type: cell-based
Serotonin Receptor 2A (5HT2A), sequence (P28223 whole entry): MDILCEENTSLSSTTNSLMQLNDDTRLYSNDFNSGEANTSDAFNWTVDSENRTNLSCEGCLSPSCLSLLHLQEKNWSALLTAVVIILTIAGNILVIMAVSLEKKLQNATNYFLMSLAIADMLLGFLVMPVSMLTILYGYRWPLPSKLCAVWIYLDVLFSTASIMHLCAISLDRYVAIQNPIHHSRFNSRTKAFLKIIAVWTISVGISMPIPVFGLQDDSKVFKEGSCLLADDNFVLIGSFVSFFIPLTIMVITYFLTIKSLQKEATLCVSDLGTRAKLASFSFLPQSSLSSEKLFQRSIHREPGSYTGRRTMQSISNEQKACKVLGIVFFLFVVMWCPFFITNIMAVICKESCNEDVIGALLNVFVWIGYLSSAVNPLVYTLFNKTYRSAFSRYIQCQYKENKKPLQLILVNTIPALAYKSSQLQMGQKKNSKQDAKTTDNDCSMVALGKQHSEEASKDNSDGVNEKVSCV
Method: as §1

[11] = 0.5 h
[12] = target: NaV1.5 (Homo sapiens, UniProt Q14524); assay: NaV1.5 assay; conditions: tested at 30 µM, result printed @ 10 µM; data not shown
NaV1.5, sequence (Q14524 whole entry): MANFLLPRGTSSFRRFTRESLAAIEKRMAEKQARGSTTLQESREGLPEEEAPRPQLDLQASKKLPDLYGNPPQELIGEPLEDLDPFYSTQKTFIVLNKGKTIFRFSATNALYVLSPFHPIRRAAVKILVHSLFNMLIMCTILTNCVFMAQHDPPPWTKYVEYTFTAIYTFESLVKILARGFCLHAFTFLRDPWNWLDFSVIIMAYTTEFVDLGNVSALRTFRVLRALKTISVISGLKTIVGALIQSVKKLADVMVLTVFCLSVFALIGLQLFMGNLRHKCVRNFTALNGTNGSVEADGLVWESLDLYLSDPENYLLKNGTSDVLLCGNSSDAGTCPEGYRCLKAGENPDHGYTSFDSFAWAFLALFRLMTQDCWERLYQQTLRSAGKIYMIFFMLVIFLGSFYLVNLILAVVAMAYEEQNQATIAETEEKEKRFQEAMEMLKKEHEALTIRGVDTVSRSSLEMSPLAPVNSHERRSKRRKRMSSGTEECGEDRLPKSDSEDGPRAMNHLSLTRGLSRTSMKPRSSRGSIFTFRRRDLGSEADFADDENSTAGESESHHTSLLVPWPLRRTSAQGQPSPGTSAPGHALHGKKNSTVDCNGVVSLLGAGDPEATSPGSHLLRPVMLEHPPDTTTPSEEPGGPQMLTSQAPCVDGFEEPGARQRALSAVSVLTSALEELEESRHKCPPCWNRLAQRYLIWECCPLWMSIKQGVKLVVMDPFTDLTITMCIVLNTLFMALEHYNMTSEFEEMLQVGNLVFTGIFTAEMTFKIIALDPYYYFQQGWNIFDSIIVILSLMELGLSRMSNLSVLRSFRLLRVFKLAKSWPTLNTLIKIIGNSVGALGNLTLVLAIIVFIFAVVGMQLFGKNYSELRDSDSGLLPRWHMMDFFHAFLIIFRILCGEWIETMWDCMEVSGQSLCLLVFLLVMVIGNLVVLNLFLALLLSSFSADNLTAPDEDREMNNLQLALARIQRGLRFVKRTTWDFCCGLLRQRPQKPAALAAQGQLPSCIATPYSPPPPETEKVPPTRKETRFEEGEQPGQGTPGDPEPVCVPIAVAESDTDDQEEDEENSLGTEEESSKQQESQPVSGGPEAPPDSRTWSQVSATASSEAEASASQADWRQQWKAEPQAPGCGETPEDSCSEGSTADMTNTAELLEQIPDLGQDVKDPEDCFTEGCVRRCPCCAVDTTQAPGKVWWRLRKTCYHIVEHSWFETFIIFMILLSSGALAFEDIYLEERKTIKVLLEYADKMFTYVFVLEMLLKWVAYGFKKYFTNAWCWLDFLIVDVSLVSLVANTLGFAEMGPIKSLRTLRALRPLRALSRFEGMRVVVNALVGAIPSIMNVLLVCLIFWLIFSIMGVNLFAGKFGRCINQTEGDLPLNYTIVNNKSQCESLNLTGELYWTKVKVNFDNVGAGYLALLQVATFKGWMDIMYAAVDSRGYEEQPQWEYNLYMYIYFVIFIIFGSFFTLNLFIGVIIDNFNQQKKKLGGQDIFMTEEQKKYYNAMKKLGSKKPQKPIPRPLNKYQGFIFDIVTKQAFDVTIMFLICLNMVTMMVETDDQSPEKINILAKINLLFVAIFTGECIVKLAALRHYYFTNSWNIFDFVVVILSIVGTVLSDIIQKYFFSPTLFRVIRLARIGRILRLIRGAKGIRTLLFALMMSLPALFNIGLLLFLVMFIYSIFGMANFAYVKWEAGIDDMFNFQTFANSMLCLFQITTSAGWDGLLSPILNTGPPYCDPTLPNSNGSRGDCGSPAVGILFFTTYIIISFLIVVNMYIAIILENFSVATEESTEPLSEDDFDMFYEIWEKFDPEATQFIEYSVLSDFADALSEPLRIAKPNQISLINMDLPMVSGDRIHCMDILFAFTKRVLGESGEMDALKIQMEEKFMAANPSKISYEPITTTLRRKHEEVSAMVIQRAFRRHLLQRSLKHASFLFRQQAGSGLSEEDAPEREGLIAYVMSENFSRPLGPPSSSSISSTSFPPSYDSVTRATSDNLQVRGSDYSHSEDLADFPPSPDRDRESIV

T1 sequence (F7ERX8 1-264): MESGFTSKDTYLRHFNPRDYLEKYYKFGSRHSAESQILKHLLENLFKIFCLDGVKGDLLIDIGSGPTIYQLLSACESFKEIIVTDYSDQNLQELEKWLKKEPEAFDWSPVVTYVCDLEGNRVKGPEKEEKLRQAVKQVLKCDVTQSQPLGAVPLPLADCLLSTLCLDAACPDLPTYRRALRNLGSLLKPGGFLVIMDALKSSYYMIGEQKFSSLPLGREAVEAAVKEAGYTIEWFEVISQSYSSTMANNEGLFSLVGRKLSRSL

COc1ccc(C(N)=O)cn1 [JBSNF-000088, 6-methoxynicotinamide]
IC50 [1]: 2800 nM
shift in melting temperature (Tm), human NNMT [2]: 5 K
plasma MNA levels ([3]; 50 mg kg^−1 orally, C57BL/6 mice, till 4 h post dosing): Significant reductions
reduction of plasma MNA levels ([3]; Discussion statement): ~ 50%
insulin level or glucose-handling in NNMT knockout mice ([4]; NNMT knockout mice, vs vehicle-treated knockout): no differences in insulin level or glucose-handling
Fed glucose levels ([4]; after 28 days, vehicle vs JBSNF-000088, wild-type or knockout): not different
glucose tolerance ([4]; treated wild-type mice vs vehicle treated): improvement in glucose tolerance
plasma MNA ([4]; wild-type animals, one hour after last administration, 28-day treatment): significant reduction in plasma MNA
fed insulin levels ([4]; wild-type mice, four weeks, not statistically significant): trend to reduced insulin levels
food intake ([4]; wild-type or knockout animals, four weeks): no change in food intake
E% (agonistic), ADRB1 ([5]; 10 µM): 3%
inhibition at 10 µM ([5]; read-out: I% (antagonistic or inhibitory), ADRB1): -33%
E% (agonistic), ADRB2 ([6]; 10 µM): 1%
inhibition at 10 µM ([6]; read-out: I% (antagonistic or inhibitory), ADRB2): 1%
I% (antagonistic or inhibitory), Cl- Channel [7]: 8%
E% (agonistic), D2S ([8]; 10 µM): -3%
inhibition at 10 µM ([8]; read-out: I% (antagonistic or inhibitory), D2S): 12%
E% (agonistic), CHRM2 ([9]; 10 µM): 13%
inhibition at 10 µM ([9]; read-out: I% (antagonistic or inhibitory), CHRM2): 3%
E% (agonistic), 5HT2A ([10]; 10 µM): 3%
inhibition at 10 µM ([10]; read-out: I% (antagonistic or inhibitory), 5HT2A): -9%
Metabolic stability human microsomes (% remaining) [11]: 90%
NaV1.5 inhibition [12]: < 30%
